Measured values: patent US8080644B2, “Oligonucleotide analogues” (Exiqon A/S, priority 1997, dated 2011)
Strand notation (5' to 3'): a small letter for the sugar, then the base; units joined by * are phosphorothioate-linked, units joined directly phosphodiester-linked; [ ] holds rarer units or linkages, { } end groups; capitals alone tell only the bases. V = LNA monomer of structure V, bold; X = bicyclic LNA-type nucleotide of structure X in the publication's (LNA marked in bold); Y = bicyclic LNA-type thymidine monomer of structure Y; l = locked nucleic acid (LNA); d = 2'-deoxy (DNA)

What was measured:
5′-d(AAAAAAAAAAAAAA)-3′ = assay: Tm of duplex (spectrophotometric melting curves); format: binding; conditions: vs 5′-d(AAAAAAAAAAAAAA)-3′; 10 mM Na2HPO4 pH 7.0, 100 mM NaCl, 0.1 mM EDTA
Description: (§1) Thermostability of oligonucleotides containing monomers of formula V, X, Y and Z^T, Z^U, Z^G, Z^C, Z^A, Z^MeC. The thermostability of the LNA modified oligonucleotides were determined spectrophotometrically using a spectrophotometer equipped with a thermoregulated Peltier element. Hybridisation mixtures of 1 ml were prepared containing either of 3 different buffers (10 mM Na2HPO4, pH 7.0, 100 mM NaCl, 0.1 mM EDTA; 10 mM Na2HPO4 pH 7.0, 0.1 mM EDTA; 3M tetramethylammoniumchlorid (TMAC), 10 mM Na2HPO4, pH 7.0, 0.1 mM EDTA) and equimolar (1 μM or 1.5 μM) amounts of the different LNA modified oligonucleotides and their complementary or mismatched DNA or RNA oligonucleotides. Identical hybridisation mixtures using the unmodified oligonucleotides were prepared as references. The Tm's were obtained as the first derivative of the melting curves. FIG. 2 illustrates the monomeric LNAs used. The nomenclature V, X, Y and Z^T, Z^U, Z^G, Z^C, Z^A, Z^MeC refer to structures V, X, Y and Z of FIG. 2. In the tables, the nucleobases of the LNA monomers are indicated. Furthermore, for the thio and amino variants of the LNA structure Z of the last two tables, the nomenclature used is, e.g., Z^TS and Z^TNH, respectively.

5′-(AAAAAAAAAAAAAA)-3′ = assay: Tm of duplex (spectrophotometric melting curves); format: binding; conditions: vs RNA 5′-(AAAAAAAAAAAAAA)-3′; 10 mM Na2HPO4 pH 7.0, 100 mM NaCl, 0.1 mM EDTA
Description: as §1

[1] = tested on: Nras amplicons (Nras 910, Nras 600, Nras 200); assay: Capture of Nras PCR amplicons by immobilised probes; format: binding, human; conditions: native amplicons; 1 pmol probe per well
Description: Three DIG labelled amplicons from Nras sequence (ref.: Nucleic Acid Research, 1985, Vol. 13, No. 14, p 52-55) were generated by PCR amplification as follows:
PCR reaction mixture for Nras amplicons: 2.3 μl human placental genomic DNA (440 ng/μl), 50 μl 10×PCR buffer (without MgCl2 Perkin Elmer), 30 μl 25 mM MgCl2, 50 μl dNTP-mix (2 mM dATP, dCTP, dGTP and 1.8 mM dTTP), 10 μl 1 mM Dig-11-dUTP, 10 μl 25 μM forward primer, 10 μl 25 μM reverse primer, 5 μl 5 U/μl AmpliTaq Gold (Perkin Elmer) and water ad 500 μl. PCR reaction: The above mixture was made for all the Nras PCR products. The only difference being reverse primer 910 bp, 600 bp or 200 bp added once at a time. The PCR mixtures were aliquoted into ten PCR tubes each and cycled in a Perkin Elmer 9600 at the following conditions: 95° C. 3 min; 55° C. 2 min, 72° C. 3 min, 95° C. 1 min (30 cycles); 55° C. 2 min, 72° C. 10 min and 4° C. soak. 10 μl from each PCR reaction was analysed on a standard agarose gel and the expected fragments of approximately 910 bp, 600 bp and 200 bp were observed. Assay conditions: Wells of a streptavidin coated micro-titer plate (Boehringer Mannheim; binding capacity of 20 pmol biotin per well) were incubated for 1 hour in 5×SSCT (0.75 M NaCl, 75 mM citrate, pH 7.0, 0.1% Tween 20) at 37° C. with either 1 pmol of DNA Nras Cap A (biotin-5′-TTCCACAGCACAA-3′) (SEQ ID NO:37), LNA/DNA Nras Cap A (biotin-5′-TTCCACAGCACAA-3′) (SEQ ID NO:38), LNA Nras Cap A (biotin-5′-TTCCACAGCACAA-3′) (SEQ ID NO:39), DNA Nras Cap B (biotin-5′-AGAGCCGATAACA-3′) (SEQ ID NO:40), LNA/DNA Nras Cap B (biotin-5′-AGAGCCGATAACA-3′) (SEQ ID NO:41) or LNA Nras Cap B (biotin-5′-AGAGCCGATAACA-3′) (SEQ ID NO:42); LNA nucleosides in bold. The Nras Cap A capture probes capture amplicons Nras 910, Nras 600 and Nras 200. Nras Cap B capture probes capture specific amplicons Nras 910 and Nras 600. After incubation with the different capture probes, the wells were washed in 5×SSCT and 5 μl native or denatured (95° C. 5 min and 10 min on ice) DIG-labelled amplicons (Nras 910, Nras 600 or Nras 200) in 95 μl 1×SSCT (0.15 M NaCl, 15 mM citrate, pH 7.0, 0.1% Tween 20) were added per well and incubated for 1 hour at 37° C. The wells were washed three times in phosphate buffered saline (1×PBST, 0.15 M Nat, pH 7.2, 0.05% Tween 20) and incubated 30 min at 37° C. with 200 μl peroxidase labelled anti-DIG antibodies (Boehringer Mannheim, diluted 1:1000 in 1×PBST). Finally the wells were washed three times in 1×PBST and assayed for peroxidase activity by adding 100 μl of substrate solution (0.1 M citrate-phosphate buffer pH 5.0, 0.66 mg/ml ortho-phenylenediamine dihydrochloride, 0.012% H2O2) the reaction was stopped after 9 min by adding 100 μl 0.5 M H2SO4 and diluted 4 times in H2SO4 before the absorbance at 492 nm was read in a micro-titer plate reader. […] We conclude that LNA modified oligos containing mixed LNA nucleosides (A, T, G or C LNA nucleosides) function efficiently in sequence specific capture of PCR amplicons when immobilised on a solid surface. We further conclude that LNA offers a means to construct capture probes that will function efficiently in amplicon capture without prior denaturation i.e. capture by strand displacement. This ability facilitates a significant simplification of current amplicon detection formats based on DNA.

Substance	Tm (° C.) Na2HPO4/NaCl/EDTA (5′-d(AAAAAAAAAAAAAA)-3′) [°C]	Tm (° C.) Na2HPO4/NaCl/EDTA (5′-(AAAAAAAAAAAAAA)-3′) [°C]	capture of specific amplicons without prior denaturation [1]
5′-d(TTTTTTTTTTTTTT)-3′ (SEQ ID NO: 80): unmodified poly-T oligonucleotide (Table 1, 42 and 43) (unmodified DNA) [reference compound]	36	32	
5′-d(TTTTTTTTTTTTTT)-3′ (SEQ ID NO: 83): partly modified poly-T oligonucleotide with Z^T (44, 45) (DNA dTdTdTdTdTdTlTdTdTdTdTdTdTdT)	36	32	
5′-d(TTTTTTTTTTTTTT)-3′ (SEQ ID NO: 86): partly modified poly-T oligonucleotide with Z^T (46, 47) (DNA dTdTdTdTdTdTlTlTdTdTdTdTdTdT)	34	40	
5′-d(TTTTTTTTTTTTTT)-3′ (SEQ ID NO: 89): partly modified poly-T oligonucleotide with Z^T (48, 49) (DNA dTdTdTdTdTlTlTlTlTdTdTdTdTdT)	42	52	
5′-d(TTTTTTTTTTTTTT)-3′ (SEQ ID NO: 92): partly modified poly-T oligonucleotide with Z^T (50, 51) (DNA dTdTdTdTlTdTlTdTlTdTlTdTdTdT)	47	53	
5′-d(TTTTTTTTTTTTTT)-3′ (SEQ ID NO: 98): partly modified poly-T with monomer V (sugars from the 5' end d7 V1 d6, backbone not given here)	32	27	
5′-d(TTTTTTTTTTTTTT)-3′ (SEQ ID NO: 101): partly modified poly-T with monomer V (sugars from the 5' end d6 V2 d6, backbone not given here)	31	28	
5′-d(TTTTTTTTTTTTTT)-3′ (SEQ ID NO: 104): partly modified poly-T with monomer V (sugars from the 5' end d6 V1 d1 V1 d5, backbone not given here)	30	23	
5′-d(TTTTTTTTTTTTTT)-3′ (SEQ ID NO: 107): partly modified poly-T with monomer V (sugars from the 5' end d5 V4 d5, backbone not given here)	23	31	
5′-d(TTTTTTTTTTTTTT)-3′ (SEQ ID NO: 110): partly modified poly-T with monomer V (sugars from the 5' end ddddVdVdVdVddd, backbone not given here)	23	16	
5′-d(TTTTTTTTTTTTTT)-3′ (SEQ ID NO: 117): poly-T containing X^T (sugars from the 5' end d7 X1 d6, backbone not given here)	23	23	
5′-d(TTTTTTTTTTTTTT)-3′ (SEQ ID NO: 120): poly-T containing X^T (sugars from the 5' end d6 X2 d6, backbone not given here)	19	23	
5′-d(TTTTTTTTTTTTTT)-3′ (SEQ ID NO: 123): poly-T containing X^T (sugars from the 5' end d6 X1 d1 X1 d5, backbone not given here)	9	15	
5′-d(TTTTTTTTTTTTTT)-3′ (SEQ ID NO: 126): poly-T containing X^T (sugars from the 5' end d5 X4 d5, backbone not given here)	5	14	
5′-d(TTTTTTTTTTTTTT)-3′ (SEQ ID NO: 129): partly modified poly-T with monomer Y (sugars from the 5' end d7 Y1 d6, backbone not given here)	36	37	
5′-d(TTTTTTTTTTTTTT)-3′ (SEQ ID NO: 132): partly modified poly-T with monomer Y (sugars from the 5' end d6 Y2 d6, backbone not given here)	35	37	
5′-d(TTTTTTTTTTTTTT)-3′ (SEQ ID NO: 135): partly modified poly-T with monomer Y (sugars from the 5' end d6 Y1 d1 Y1 d5, backbone not given here)	35	36	
5′-d(TTTTTTTTTTTTTT)-3′ (SEQ ID NO: 138): partly modified poly-T with monomer Y (sugars from the 5' end d5 Y4 d5, backbone not given here)	32	33	
5′-d(TTTTTTTTTTTTTT)-3′ (SEQ ID NO: 141): partly modified poly-T with monomer Y (sugars from the 5' end ddddYdYdYdYddd, backbone not given here)	36	36	
5′-d(TTTTTTTTTTTTTT)-3′ (SEQ ID NO: 144): fully modified poly-T oligonucleotide of structure Y (sugars from the 5' end Y13 d1, backbone not given here)	58	58	
DNA Nras Cap A: biotin-5′-TTCCACAGCACAA-3′ (SEQ ID NO:37), DNA capture probe (DNA, 5' {Biotin}, backbone not given here) [reference compound]			do not capture the specific amplicons at all
DNA Nras Cap B: biotin-5′-AGAGCCGATAACA-3′ (SEQ ID NO:40), DNA capture probe (DNA, 5' {Biotin}, backbone not given here) [reference compound]			do not capture the specific amplicons at all
